Patent US7390816B2, “Methods for treating urinary incontinence in patients suffering from memory disorders” (Bridge Pharma, Inc., priority 2005, dated 2008)
Read-outs that look alike come from different tables or passages of the source.

How the values were obtained:
[1] = system: carbachol-induced contractions of urinary bladder smooth muscle strips; assay: Antimuscarinic activity on bladder smooth muscle strips (carbachol-induced contractions); format: cell-based, guinea pigs; details: Cavia porcellus, read-out: KB for inhibition of carbachol-induced contractions
Description: Conclusions: Trospium had slightly higher affinity for human muscarinic receptors than the reference compounds. The therapeutic activity of anti-muscarinic drugs in overactive human bladders are usually considered to be related to affinity for M-2/M-3 receptors, while the side effect xerostomia (dry mouth) is due mainly, but not exclusively, to inhibition of M-1 receptors in salivary glands. • 2. Functional Characterization of Antimuscarinic and Antispasmodic Activities on Bladder Smooth Muscle Strips. Methods: Experiments have now been performed using methods described by Kachur et al, J Pharmacol Exp Ther. 1988, 247: 867-872 and Noronha-Blob et al. J Pharmacol Exp Ther 256: 562-567. Strips of tissue (approximately 10 mm long and 1.5 mm wide) were removed from the urinary bladder of male guinea pigs. The tissues were suspended in an oxygenated buffer of the following composition, in mM: NaCl 133; KCl 4.7; CaCl2 2.5; MgSO4 0.6; NaH2PO4.1.3; NaHCO3 16.3; and glucose 7.7. The smooth muscle strips were maintained at or about 37.5° C. in tissue chambers and allowed to equilibrate with the bathing solution for one hour before proceeding with the experiment. […]

memory = assay: Side effects concerning memory functions, T-shaped maze in conscious rats; format: in vivo; details: for Effect on memory: naive rats
Experimental: . Side effects concerning memory functions. Methods:
Conscious rats are used. The animals are placed at the base of a T-shaped maze with a reward placed in one of the arms of the maze. After the animals have learned where the reward is located, said reward is removed and it is investigated how long time it takes in the maze before the rats no longer selected the arm of the maze where the reward had been located. Experiments were also performed in rats that had been pretreated with phenylephrine to increase the permeability of the blood-brain barrier. Control groups of animals were treated with placebo (vehicle only) or with oxybutynin.

[2] = male guinea pig urinary bladder strips

CC(CC(c1ccccc1)c1ccccc1)NC(C)(C)C (centres unmarked) [terodiline]
Kb [1, 2]: 1.5 to 5.5 nM

Cc1ccc(O)c([C@H](CCN(C(C)C)C(C)C)c2ccccc2)c1 [Tolterodine]
Kb [1]: 1.5 to 5.5 nM

O=C(OC1CC2CCC(C1)[N+]21CCCC1)C(O)(c1ccccc1)c1ccccc1 (centres unmarked) [Trospium, azoniaspiro (3[…]-benziloyl-oxynortro-pane-8,1′-pyrrolidine) chloride]
Effect on memory (memory; T-shaped maze): does not influence the memory | Effect on memory after phenylephrine pretreatment (memory; rats pretreated with phenylephrine to increase blood-brain barrier permeability): did not uncover any impairment of memory | Aggravation of existing memory impairment (memory; rats with memory disorder induced by oxybutynin, T-shaped maze): no further aggravation of memory impairment | Kb [1]: 1.5 to 5.5 nM

CCN(CC)CC#CCOC(=O)C(O)(c1ccccc1)C1CCCCC1 (centres unmarked) [Oxybutynin]
Effect on memory (memory; T-shaped maze): memory is impaired | Kb [1, 2]: 1.5 to 5.5 nM
